Test results from patent US20110082148A1, “TREATING, PREVENTING OR AMELIORATING A HYPERPROLIFERATIVE DISEASE/DISORDER” (priority 2009, published 2011).

Columns and labels:
[1] = system: National Cancer Institute 60 cell line; experiment: National Cancer Institute 60 cell line one dose test; assay type: cell-based; settings: NCI 60 cell line, across many cell lines
Protocol: FIG. 1 illustrates a National Cancer Institute 60 cell line one dose mean graph for erdosteine. […] A National Cancer Institute 60 cell line test was performed using erdosteine. FIG. 1 illustrates the effectiveness of the erdosteine at inhibiting cancer cell growth in several cell lines. […] A National Cancer Institute 60 cell line test was performed using cinoxacin. FIG. 2 illustrates the effectiveness of the cinoxacin at inhibiting cancer cell growth in several cell lines is shown.

HL60 xenograft = assay type: in vivo
Protocol: FIG. 4(b) illustrates the tumor volume growth of HL60 xenograft over time after treatment with cinoxacin in dosages of 100 mg/kg and 300 mg/kg as compared to control sample.
FIGS. 4(a) and (b) show the tumor volume growth of an HL60 xenograft over time after treatment with cinoxacin in different dosages as compared to a control sample. The cinoxacin was obtained from Signma Aldrich (MOL_ID—1), and solubilized in […] and phosphate buffered saline and administered […] to test mice. […] The treatment regimen was implemented as 3 day+3 day, with an ip single injection each day. Tumor volume was measured by ruler. […] The mice were provided a single dose daily for ten consecutive days. […] It is believed that higher dosages could also be used without incurring detrimental effects.

[2] = system: RPMI-8226-luc human myeloma xenografts; experiment: RPMI-8226-luc human myeloma xenografts in NSG mice, survival; assay type: in vivo, NOD scid gamma (NSG) mice; settings: for survival time: controls all died before 20 days
Text: FIG. 5(a) illustrates the photons/sec/cm^2×10^−6 present over time in RPMI-8226-luc human myeloma xenografts in NSG mice.
FIG. 5(b) illustrates the percentage of male and female mice survival over time when provided varying dosage amounts of cinoxacin as compared to a control sample.
FIG. 5(b) illustrates the survival percentage of male and female mice when treated with various dosages of cinoxacin for a period of 10 to 40 days. FIGS. 5(a) and (b) display that the controls all died before 20 days had passed. The females died around 25 days; however, all the males survived for 40 days when treatment was stopped. […] By the time the drug was administered, the concentration of myeloma cells in female mice had reached about 9×10^6, which appears to be beyond repair.

[3] = Administration to mice, adverse side effects; assay type: in vivo; settings: from about 25 mg/kg to about 15 mg/kg
Text: However, in any given case, the amount of the compound administered will depend on such factors as the solubility of the active component, the formulation used, subject condition (such as weight), and/or the route of administration.

| SMILES | cell growth compared with control specimen [1] | tumor volume increase (HL60 xenograft; FIG. 4(a), 100 mg/kg compared to 25 mg/kg and 50 mg/kg, 3 day+3 day, single injection each day) | growth of Leukemic cells (tumor volume growth) (HL60 xenograft; FIG. 4(b), 100 mg/kg and 300 mg/kg vs control, single dose daily for ten consecutive days, particularly at 200 mg/kg) | survival time ([2]; female mice treated with cinoxacin) | survival time ([2]; male mice treated with cinoxacin, treatment stopped at 40 days) [days] | survival compared to female mice and controls ([2]; male mice, 1500 mg/kg/day) | adverse side effects [3] |
| --- | --- | --- | --- | --- | --- | --- | --- |
| CCn1nc(C(=O)O)c(=O)c2cc3c(cc21)OCO3 [cinoxacin] | lower than in a control specimen | slower tumor volume increase | substantial slowing down of the growth of Leukemic cells | around 25 days | ≥ 40 | survival was prolonged | without adverse side effects |
| O=C(O)CSCC(=O)NC1CCSC1=O (stereo not drawn) [erdosteine] | lower than in a control specimen | – | – | – | – | – | without adverse side effects |
